# Data from patent US12168678B2, “Heme sequesting peptides and uses therefor” (Board of Regents, The University of Texas System, priority 2019, dated 2024).
# Structures can show the parent of a compound that is named as a salt.
# How the values were obtained:
# A549 cells = test: Colony formation assay; format: cell-based, human; conditions: for effect of heme addition on colony formation: 10 μM heme add-back; for effect of iron addition on colony formation: 50 μM ferric chloride; for colony formation: 6 days, 0.5 mM succinyl acetone, 10 μM HSPs, 50 μM DFX, 10 μM SnPP
# Experimental: (§1) Cell proliferation was measured by detecting the luciferase activity in live cells and by using a hemocytometer. Cell migration and invasion assays were carried out with BD Falcon cell culture inserts (Corning Life Sciences) and the manufacturer's cell migration, chemotaxis, and invasion assay protocols. For the colony formation assay, 5000 NSCLC cells were seeded in every well in 6-well tissue culture plates in triplicates. Cells were treated with 0.5 mM succinyl acetone (Sigma Aldrich), 10 μM HSPs, 50 μM deferoxamine mesylate (DFX), 10 μM zinc (II) protoporphyrin IX, 10 μM tin (IV) protoporphyrin IX, or 50 μM ferric chloride for 6 days. For heme add-back experiments, 10 μM heme was included. Medium was changed every 3 days. After 6 days of treatment, cells were fixed with 70% ethanol and stained with 0.5% crystal violet. Images were acquired by using Carestream Gel Logic GL-112 imaging system.
# H1299 cells = test: Colony formation assay; format: cell-based, human; conditions: for effect of heme addition on colony formation: 10 μM heme add-back; for effect of iron addition on colony formation: 50 μM ferric chloride; for colony formation: 6 days, 0.5 mM succinyl acetone, 10 μM HSPs, 50 μM DFX, 10 μM SnPP
# Experimental: as §1
# A549 NSCLC cells [1] = test: Cell migration assay (Transwell inserts); format: cell-based, human; conditions: 10 μM heme
# Experimental: as §1
# H1299 NSCLC cells [2] = test: Cell migration assay (Transwell inserts); format: cell-based, human; conditions: heme add-back 10 μM, b23 prints 10 mM
# Experimental: as §1
# H1299 NSCLC cells [3] = test: Cell invasion assay (Matrigel invasion chambers); format: cell-based, human; conditions: heme add-back 10 μM, b23 prints 10 mM
# A549 NSCLC cells [4] = test: Cell invasion assay (Matrigel invasion chambers); format: cell-based, human; conditions: 10 μM heme
# [5] = system: H1299 NSCLC lung tumor xenografts; format: in vivo; conditions: SA 50 mg/kg I.V. every 3 days, from 4 days after implantation
# [6] = system: 5-aminolevulic synthase (ALAS1); conditions: previous studies, non-erythroid cells; cited from earlier work
# [7] = references 55, 56; cited from earlier work
# heme oxygenases = conditions: reference 51; cited from earlier work
Compound,effect of heme addition on colony formation (A549 cells),effect of iron addition on colony formation (A549 cells),colony formation (A549 cells),effect of heme addition on colony formation (H1299 cells),effect of iron addition on colony formation (H1299 cells),colony formation (H1299 cells),effect of heme addition on reduced migration (A549 NSCLC cells [1]),effect of heme addition on reduced migration (H1299 NSCLC cells [2]),effect of heme addition on reduced invasion (H1299 NSCLC cells [3]),effect of heme addition on reduced invasion (A549 NSCLC cells [4]),suppression of lung tumors (BLI) [5],inhibition of heme biosynthesis [6],toxicity to animals [7],inhibition of the activities of heme oxygenases (heme oxygenases)
"CC(=O)N(O)CCCCCNC(=O)CCC(=O)N(O)CCCCCNC(=O)CCC(=O)N(O)CCCCCN [DFX, Deferoxamine mesylate]",partially reversed,largely reversed,reduced colony formation,partially reversed,largely reversed,reduced colony formation,–,–,–,–,–,–,–,–
"CC(=O)CC(=O)CCC(=O)O [succinyl acetone, Succinyl acetone]",largely reversed,did not reverse,strongly suppressed colony formation,largely reversed,did not reverse,strongly suppressed colony formation,largely reversed,largely reversed,largely reversed,largely reversed,not very effective,effective inhibitor,low toxicity,–
Tin (IV) protoporphyrin [SnPP],–,–,appeared to reduce colony formation,–,–,appeared to reduce colony formation,–,–,–,–,–,–,–,strong inhibitor
